Source: patent US8618094B2, “Fused substituted aminopyrrolidine derivative” (Daiichi Sankyo Company, Limited, priority 2007, dated 2013)
In brackets after ≈: the same amount, converted by molar mass. Where two headings read alike, the source gives them in different places.

Columns and labels:
E. cloacae 03400 = assay: Antibacterial activity (MIC), standard method of the Japanese Society of Chemotherapy; type: cell-based; settings: Enterobacter cloacae
Description: (§1) Antibacterial activity of the compounds of the present invention was measured in accordance with the standard method specified by the Japanese Society of Chemotherapy.

E. coli NIHJ = assay: as above; type: cell-based; settings: Escherichia coli
Description: as §1

E. faecalis 19433 = assay: as above; type: cell-based; settings: Enterococcus faecalis
Description: as §1

H. influenzae ATCC49247 = assay: as above; type: cell-based; settings: Haemophilus influenzae
Description: as §1

K. pneumoniae TYPE 1 = assay: as above; type: cell-based; settings: Klebsiella pneumoniae, TYPE1
Description: as §1

[1] = tested on: M(B). Caterrhalis ATCC25238; assay: as above; type: cell-based
Description: as §1

P. aeruginosa PAO1 = assay: as above; type: cell-based; settings: Pseudomonas aeruginosa
Description: as §1

P. mirabilis 08103 = assay: as above; type: cell-based; settings: Proteus mirabilis
Description: as §1

S. aureus 870307 = assay: as above; type: cell-based; settings: Staphylococcus aureus
Description: as §1

S. aureus FDA 209-P = assay: as above; type: cell-based; settings: Staphylococcus aureus, FDA209
Description: as §1

S. epidermidis 56500 = assay: as above; type: cell-based; settings: Staphylococcus epidermidis
Description: as §1

S. marcescens 10100 = assay: as above; type: cell-based; settings: Serratia marcescens
Description: as §1

S. pneumoniae 104835 = assay: as above; type: cell-based; settings: Streptococcus pneumoniae
Description: as §1

S. pneumoniae J24 = assay: as above; type: cell-based; settings: Streptococcus pneumoniae
Description: as §1

[2] = tested on: S. pyogenes JCM5674(ATCC12344); assay: as above; type: cell-based; settings: Streptococcus pyogenes
Description: as §1

mouse bone marrow = assay: Mouse bone marrow micronucleus test after intravenous administration; type: in vivo
Source text: The compound represented by the formula 365 was confirmed to be positive for induction of micronuclei in a mouse bone marrow micronucleus test after intravenous administration.

[3] = Mouse phototoxicity test after intravenous administration; type: in vivo
[4] = H. influenzae ATCC49247 (first half of Table 2), read-out: MIC, H. influenzae ATCC49247
[5] = M(B). Caterrhalis ATCC25238 (first half of Table 2), read-out: MIC, M(B). Caterrhalis ATCC25238

| SMILES | MIC (E. cloacae 03400) [µg/mL] | MIC (E. coli NIHJ) [µg/mL] | MIC (E. faecalis 19433) [µg/mL] | MIC (H. influenzae ATCC49247; [4]) [µg/mL] | MIC (K. pneumoniae TYPE 1) [µg/mL] | MIC [1, 5] [µg/mL] | MIC (P. aeruginosa PAO1) [µg/mL] | MIC (P. mirabilis 08103) [µg/mL] | MIC (S. aureus 870307) [µg/mL] | MIC (S. aureus FDA 209-P) [µg/mL] | MIC (S. epidermidis 56500) [µg/mL] | MIC (S. marcescens 10100) [µg/mL] | MIC (S. pneumoniae 104835) [µg/mL] | MIC (S. pneumoniae J24) [µg/mL] | MIC [2] [µg/mL] | melting point | MIC (H. influenzae ATCC49247; ATCC 25238 / ATCC 49247, H. influenzae ATCC25238 as printed (second half of Table 2), read-out: MIC, H. influenzae ATCC25238) [µg/mL] | MIC ([1]; M(B). Caterrhalis [sic] ATCC49247 (Table 2), read-out: MIC, M(B). Caterrhalis ATCC49247) [µg/mL] | induction of micronuclei (mouse bone marrow) | phototoxicity [3] |
| --- | --- | --- | --- | --- | --- | --- | --- | --- | --- | --- | --- | --- | --- | --- | --- | --- | --- | --- | --- | --- |
| COc1c(N2C[C@@H]3CCC[C@]3(N)C2)c(F)cc2c(=O)c(C(=O)O)cn([C@@H]3C[C@@H]3F)c12 (single isomer, unassigned) [Example 11, 7-{(1R*,5S*)-1-Amino-3-azabicyclo[3.3.0]octan-3-yl}-6-fluoro-1-[(1R,2S)-2-fluorocyclopropyl]-8-methoxy-1,4-dihydro-4-oxoquinoline-3-carboxylic acid] | 0.012 (≈ 0.0286 µM) | 0.025 (≈ 0.0596 µM) | 0.1 (≈ 0.238 µM) | 0.006 (≈ 0.0143 µM) | 0.1 (≈ 0.238 µM) | 0.025 (≈ 0.0596 µM) | 0.78 (≈ 1.86 µM) | 0.05 (≈ 0.119 µM) | 0.78 (≈ 1.86 µM) | 0.012 (≈ 0.0286 µM) | 0.05 (≈ 0.119 µM) | 0.1 (≈ 0.238 µM) | 0.39 (≈ 0.93 µM) | 0.05 (≈ 0.119 µM) | 0.025 (≈ 0.0596 µM) | 169 to 172 °C | – | – | negative | negative |
| COc1c(N2C[C@H]3CC=C[C@@]3(N)C2)c(F)cc2c(=O)c(C(=O)O)cn([C@@H]3C[C@@H]3F)c12 [Example 24, 7-[(1S,5R)-1-Amino-3-azabicyclo[3.3.0]oct-7-en-3-yl]-6-fluoro-1-[(1R,2S)-2-fluorocyclopropyl]-8-methoxy-1,4-dihydro-4-oxoquinoline-3-carboxylic acid] | 0.025 (≈ 0.0599 µM) | 0.025 (≈ 0.0599 µM) | 0.1 (≈ 0.24 µM) | 0.006 (≈ 0.0144 µM) | 0.1 (≈ 0.24 µM) | 0.05 (≈ 0.12 µM) | 0.39 (≈ 0.934 µM) | 0.025 (≈ 0.0599 µM) | 0.78 (≈ 1.87 µM) | 0.025 (≈ 0.0599 µM) | 0.1 (≈ 0.24 µM) | 0.2 (≈ 0.479 µM) | 0.39 (≈ 0.934 µM) | 0.05 (≈ 0.12 µM) | 0.1 (≈ 0.24 µM) | 206 to 208 °C | – | – | – | – |
| N[C@@]12CCC[C@@H]1CN(c1c(F)cc3c(=O)c(C(=O)O)cn(C4CC4)c3c1F)C2 [formula 365, reference compound] | – | – | – | – | – | – | – | – | – | – | – | – | – | – | – | – | – | – | positive | positive |

Now from value to molecule, other results behind:

| MIC (E. cloacae 03400) [µg/mL] | MIC (E. coli NIHJ) [µg/mL] | MIC (E. faecalis 19433) [µg/mL] | MIC (H. influenzae ATCC49247; [4]) [µg/mL] | MIC (K. pneumoniae TYPE 1) [µg/mL] | MIC [1, 5] [µg/mL] | MIC (P. aeruginosa PAO1) [µg/mL] | MIC (P. mirabilis 08103) [µg/mL] | MIC (S. aureus 870307) [µg/mL] | MIC (S. aureus FDA 209-P) [µg/mL] | MIC (S. epidermidis 56500) [µg/mL] | MIC (S. marcescens 10100) [µg/mL] | MIC (S. pneumoniae 104835) [µg/mL] | MIC (S. pneumoniae J24) [µg/mL] | MIC [2] [µg/mL] | melting point | MIC (H. influenzae ATCC49247; ATCC 25238 / ATCC 49247, H. influenzae ATCC25238 as printed (second half of Table 2), read-out: MIC, H. influenzae ATCC25238) [µg/mL] | MIC ([1]; M(B). Caterrhalis [sic] ATCC49247 (Table 2), read-out: MIC, M(B). Caterrhalis ATCC49247) [µg/mL] | SMILES | induction of micronuclei (mouse bone marrow) | phototoxicity [3] |
| --- | --- | --- | --- | --- | --- | --- | --- | --- | --- | --- | --- | --- | --- | --- | --- | --- | --- | --- | --- | --- |
| 0.025 (≈ 0.0579 µM) | 0.025 (≈ 0.0579 µM) | 0.1 (≈ 0.232 µM) | 0.012 (≈ 0.0278 µM) | 0.2 (≈ 0.464 µM) | 0.025 (≈ 0.0579 µM) | 0.78 (≈ 1.81 µM) | 0.05 (≈ 0.116 µM) | 0.1 (≈ 0.232 µM) | 0.006 (≈ 0.0139 µM) | 0.025 (≈ 0.0579 µM) | 0.2 (≈ 0.464 µM) | 0.2 (≈ 0.464 µM) | 0.025 (≈ 0.0579 µM) | 0.025 (≈ 0.0579 µM) | 182 to 203 °C (dec.) | – | – | COc1c(N2C[C@H]3C4(CC4)C[C@@]3(N)C2)c(F)cc2c(=O)c(C(=O)O)cn([C@@H]3C[C@@H]3F)c12 [Example 10, 7-[(1S,5R)-1-Amino-6-spirocyclopropane-3-azabicyclo[3.2.0]heptan-3-yl]-1-[(1R,2S)-2-fluorocyclopropyl]-6-fluoro-1,4-dihydro-8-methoxy-4-oxoquinoline-3-carboxylic acid] | – | – |
| 0.025 (≈ 0.0572 µM) | 0.006 (≈ 0.0137 µM) | 0.2 (≈ 0.457 µM) | ≤ 0.003 | 0.05 (≈ 0.114 µM) | 0.025 (≈ 0.0572 µM) | 0.78 (≈ 1.78 µM) | 0.025 (≈ 0.0572 µM) | 0.39 (≈ 0.892 µM) | 0.012 (≈ 0.0274 µM) | 0.05 (≈ 0.114 µM) | 0.2 (≈ 0.457 µM) | 0.39 (≈ 0.892 µM) | 0.05 (≈ 0.114 µM) | 0.05 (≈ 0.114 µM) | 191 to 195 °C (dec.) | – | – | COc1c(N2C[C@]3(N)CCC[C@]3(F)C2)c(F)cc2c(=O)c(C(=O)O)cn([C@@H]3C[C@@H]3F)c12 [Example 15, 7-[(1R,5S)-1-Amino-5-fluoro-3-azabicyclo[3.3.0]octan-3-yl]-6-fluoro-1-[(1R,2S)-2-fluorocyclopropan-1-yl]-1,4-dihydro-8-methoxy-4-oxoquinoline-3-carboxylic acid] | – | – |
| 0.006 (≈ 0.0143 µM) | ≤ 0.003 | 0.1 (≈ 0.238 µM) | – | 0.025 (≈ 0.0596 µM) | – | 0.39 (≈ 0.93 µM) | 0.025 (≈ 0.0596 µM) | 0.2 (≈ 0.477 µM) | 0.012 (≈ 0.0286 µM) | 0.025 (≈ 0.0596 µM) | 0.05 (≈ 0.119 µM) | 0.39 (≈ 0.93 µM) | 0.05 (≈ 0.119 µM) | 0.05 (≈ 0.119 µM) | 159 to 161 °C | ≤ 0.003 | 0.006 (≈ 0.0143 µM) | Cc1c(N2C[C@@H]3CCOC[C@@]3(N)C2)c(F)cc2c(=O)c(C(=O)O)cn([C@@H]3C[C@@H]3F)c12 [Example 44, 7-[(1S,6S)-1-Amino-3-oxa-8-azabicyclo[4,3,0]nonan-8-yl]-6-fluoro-1-[(1R,2S)-2-fluorocyclopropyl]-1,4-dihydro-8-methyl-4-oxoquinoline-3-carboxylic acid] | – | – |
